{"source": "paper PMC3989846", "about": "(Malaria Journal, 2014)", "tested_on": "luciferase-expressing P. berghei ANKA sporozoites", "assay": "Real time in vivo imaging (IVIS) of liver-stage luminescence in sporozoite-infected mice", "parameters": "species or system Plasmodium berghei", "conditions": "for Suppression rate (%) IVIS 24 h: 24 h post infection; for Suppression rate (%) IVIS 48 h: 48 h post infection; for Suppression rate (%) IVIS 72 h: 72 h post infection", "description": "Luciferase-expressing P. berghei ANKA sporozoites were obtained from laboratory-reared female An. stephensi mosquitoes from the Department of Mosquito Biology, WRAIR. […] Salivary glands were extracted from malaria-infected mosquitoes and kept on ice in RPMI medium with 1% mouse serum. Sporozoites will be recovered by the method of Ozaki, and quantitated using a haemocytometer. Sporozoites isolated from the same batch of mosquitoes will be inoculated into C57BL/6 albino mice on the same day to control for biological variability in sporozoite preparations. Each C57BL/6 mouse will be inoculated intravenously in the tail vein with approximately 50,000 sporozoites suspended in 0.1 mL volume on day 0. To ensure that inoculated sporozoites are viable following the isolation procedure, they will be stained with a vital dye containing fluorescein diacetate (50 mg/mL in acetone) and ethidium bromide (20 μg/mL in phosphate-buffered saline; Sigma Chemical Co., St. Louis, Mo.) and counted in a haemocytometer.\n[…] […] Additionally, blood stage infections were measured by flow cytometry. Positive and negative controls were used for the IVIS calibration in each test.\nCausal prophylactic effects and delay in onset of parasitaemia in animals treated with TQ and PQ (Figure 1) were assessed in these experiments, which included a positive control, 4-methyl-PQ. All dosing was conducted based on the body weight at the time of preparation of the dosing solution. […] Each animal received 0.1 - 0.2 ml of the oral solutions, delivered via an intragastric feeder (18-gauge) to the designated recipient. Stock solutions of test compounds were prepared fresh daily by grinding the needed amount of drug in cold (4°C) 0.5% (w/v) hydroxyethyl cellulose and 0.2% (v/v) Tween-80 (0.5% HECT) and diluting the resulting solution at variable concentrations. C57BL/6 albino mice were challenged intravenously with 50,000 luciferase-expressing P. berghei sporozoites extracted from the salivary glands of heavily infected An. stephensi mosquitoes. […] At day 5–30 after infection, the same mice were analysed for blood stage infection by determination of the course of parasitaemia of tail blood by flow cytometry using an FC500 flow cytometer (Beckman-Coulter Co. CA).\nIn vivo imaging studies of bioluminescence activity from luciferase expressing P. berghei infected mice were performed using a Perkin Elmer IVIS Spectrum (Hanover, MD). […] Three minutes post luciferin administration the mice were anesthetized with inhaled isoflurane. The mice were then positioned ventral side up in the IVIS on a 37°C platform. The mice continue to receive isoflurane through nose cone delivery. The camera exposure times utilized were 1 and 5 minutes for the 24, 48, and 72 hour time points with f-stop = 1 and large binning setting. Quantitative analysis of bioluminescence emitted from whole bodies or region of intensity (ROI) were determined by measuring the luminescence signal intensity in photons/second using the ROI settings of the Living Image® 3.0 software. The ROI, which measurements were expressed in total flux of photons, was set to measure the abdominal area at the location of the liver from whole body imaging.\nIn the in vivo imaging experiments, causal prophylaxis activity, sporontocidal activity, parasite clearance, causal cure, delays in patency, and time to recrudescence were calculated as described previously. The minimum curative dose (MCD100) in 100% animals was defined as the lowest dose, which cured all animals (>5 animals) in a group at any time during the first 30 days of the follow-up period.", "key": {"[1]": {"conditions": "1.25 mg/kg oral, 3 days (-1, 0, 1)"}, "[2]": {"conditions": "5 mg/kg oral, 3 days (-1, 0, 1)"}, "[3]": {"conditions": "5 mg/kg single oral dose on day 0"}, "[4]": {"conditions": "5 mg/kg single oral dose on day -1"}, "[5]": {"conditions": "10 mg/kg oral, 3 days (-1, 0, 1)"}, "[6]": {"conditions": "15 mg/kg oral, 3 days (-1, 0, 1)"}, "[7]": {"conditions": "20 mg/kg oral, 3 days (-1, 0, 1)"}, "[8]": {"conditions": "25 mg/kg oral, 3 days (-1, 0, 1)"}, "[9]": {"conditions": "25 mg/kg single oral dose on day 0"}, "[10]": {"conditions": "25 mg/kg single oral dose on day -1"}}, "data": [{"smiles": "COc1cc(C)c2c(Oc3cccc(C(F)(F)F)c3)c(OC)cc(NC(C)CCCN)c2n1", "note": "(stereo not shown) [Tafenoquine, tafenoquine]", "values": [{"measurement": "Suppression rate (%) IVIS 24 h", "setting": "[1]", "value": 84.7, "unit": "%"}, {"measurement": "Suppression rate (%) IVIS 48 h", "setting": "[1]", "value": 92.3, "unit": "%"}, {"measurement": "Suppression rate (%) IVIS 72 h", "setting": "[1]", "value": 98.9, "unit": "%"}, {"measurement": "Suppression rate (%) IVIS 48 h", "setting": "[2]", "value": 100, "unit": "%"}, {"measurement": "Suppression rate (%) IVIS 72 h", "setting": "[2]", "value": 100, "unit": "%"}, {"measurement": "Suppression rate (%) IVIS 24 h", "setting": "[3]", "value": 66.0, "unit": "%"}, {"measurement": "Suppression rate (%) IVIS 48 h", "setting": "[3]", "value": 91.1, "unit": "%"}, {"measurement": "Suppression rate (%) IVIS 72 h", "setting": "[3]", "value": 98.5, "unit": "%"}, {"measurement": "Suppression rate (%) IVIS 24 h", "setting": "[4]", "value": 68.7, "unit": "%"}, {"measurement": "Suppression rate (%) IVIS 48 h", "setting": "[4]", "value": 98.6, "unit": "%"}, {"measurement": "Suppression rate (%) IVIS 72 h", "setting": "[4]", "value": 100, "unit": "%"}, {"measurement": "Suppression rate (%) IVIS 24 h", "setting": "[5]", "value": 100, "unit": "%"}, {"measurement": "Suppression rate (%) IVIS 48 h", "setting": "[5]", "value": 100, "unit": "%"}, {"measurement": "Suppression rate (%) IVIS 72 h", "setting": "[5]", "value": 100, "unit": "%"}]}, {"smiles": "COc1cc(NC(C)CCCN)c2ncccc2c1", "note": "(stereo not shown) [Primaquine, primaquine]", "values": [{"measurement": "Suppression rate (%) IVIS 24 h", "setting": "[2]", "value": 82.4, "unit": "%"}, {"measurement": "Suppression rate (%) IVIS 48 h", "setting": "[2]", "value": 77.5, "unit": "%"}, {"measurement": "Suppression rate (%) IVIS 72 h", "setting": "[2]", "value": 89.4, "unit": "%"}, {"measurement": "Suppression rate (%) IVIS 24 h", "setting": "[5]", "value": 100, "unit": "%"}, {"measurement": "Suppression rate (%) IVIS 48 h", "setting": "[5]", "value": 97.6, "unit": "%"}, {"measurement": "Suppression rate (%) IVIS 72 h", "setting": "[5]", "value": 100, "unit": "%"}, {"measurement": "low level of luminescence", "setting": "10 mg/kg x 3 days, 5 of 10 animals, 48 hours", "value": "0.66 × 10^5 photons/sec"}, {"measurement": "Suppression rate (%) IVIS 24 h", "setting": "[6]", "value": 100, "unit": "%"}, {"measurement": "Suppression rate (%) IVIS 48 h", "setting": "[6]", "value": 100, "unit": "%"}, {"measurement": "Suppression rate (%) IVIS 72 h", "setting": "[6]", "value": 100, "unit": "%"}, {"measurement": "Suppression rate (%) IVIS 24 h", "setting": "[7]", "value": 100, "unit": "%"}, {"measurement": "Suppression rate (%) IVIS 48 h", "setting": "[7]", "value": 100, "unit": "%"}, {"measurement": "Suppression rate (%) IVIS 72 h", "setting": "[7]", "value": 100, "unit": "%"}, {"measurement": "Suppression rate (%) IVIS 24 h", "setting": "[8]", "value": 100, "unit": "%"}, {"measurement": "Suppression rate (%) IVIS 48 h", "setting": "[8]", "value": 100, "unit": "%"}, {"measurement": "Suppression rate (%) IVIS 72 h", "setting": "[8]", "value": 100, "unit": "%"}, {"measurement": "Suppression rate (%) IVIS 24 h", "setting": "[9]", "value": 11.2, "unit": "%"}, {"measurement": "Suppression rate (%) IVIS 48 h", "setting": "[9]", "value": 0, "unit": "%"}, {"measurement": "Suppression rate (%) IVIS 72 h", "setting": "[9]", "value": 0, "unit": "%"}, {"measurement": "Suppression rate (%) IVIS 24 h", "setting": "[10]", "value": 45.7, "unit": "%"}, {"measurement": "Suppression rate (%) IVIS 48 h", "setting": "[10]", "value": 0, "unit": "%"}, {"measurement": "Suppression rate (%) IVIS 72 h", "setting": "[10]", "value": 0, "unit": "%"}, {"measurement": "liver luminescence after 24 hours", "setting": "single oral dose 25 mg/kg", "value": "high levels of luminescence and no suppression of signal"}]}]}
